Measurements from ChEMBL document CHEMBL1201862, “PubChem BioAssay data set” (2004).
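Following 48 hours of exposure in 96-well plates, responses at five concentrations were used to interpolate endpoints linearly. At the GI50, growth is halved.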 Active and inactive are the calls of the source. Rule as the data show it: active = GI50 up to about 1.1 µM and inactive = higher.

How the values were obtained:
Assay in all cases: inhibition of tumour cell growth, NCI panel, 48 h
HOP-62 = system: HOP-62
DU-145 = system: DU-145
NCI-H23 = system: NCI-H23
OVCAR-4 = system: OVCAR-4
TK-10 = system: TK-10
SW-620 = system: SW-620
OVCAR-5 = system: OVCAR-5
K562 = system: K562
ACHN = system: ACHN
IGROV-1 = system: IGROV-1
Hs-578T = system: Hs-578T
NCI-H460 = system: NCI-H460
SF-539 = system: SF-539
SN12C = system: SN12C
RPMI-8226 = system: RPMI-8226
SNB-19 = system: SNB-19
SK-MEL-2 = system: SK-MEL-2
SF-295 = system: SF-295
PC-3 = system: PC-3
COLO 205 = system: COLO 205
SF-268 = system: SF-268
MOLT-4 = system: MOLT-4
LOX IMVI = system: LOX IMVI
EKVX = system: EKVX
UACC-257 = system: UACC-257
Malme-3M = system: Malme-3M
UACC-62 = system: UACC-62
786-0 = system: 786-0
A498 = system: A498
MDA-MB-231 = system: MDA-MB-231
MCF7 = system: MCF7
MDA-N = system: MDA-N
HCT-116 = system: HCT-116
HT-29 = system: HT-29
M14 = system: M14
A549 = system: A549
SK-OV-3 = system: SK-OV-3
RXF 393 = system: RXF 393
U-251 = system: U-251
SNB-75 = system: SNB-75
OVCAR-8 = system: OVCAR-8
NCI-H226 = system: NCI-H226
NCI/ADR-RES = system: NCI/ADR-RES
T47D = system: T47D
SR = system: SR
KM12 = system: KM12
OVCAR-3 = system: OVCAR-3
HCT-15 = system: HCT-15
HL-60 = system: HL-60
BT-549 = system: BT-549
SK-MEL-5 = system: SK-MEL-5
UO-31 = system: UO-31
SK-MEL-28 = system: SK-MEL-28
CCRF-CEM = system: CCRF-CEM
HOP-92 = system: HOP-92
MDA-MB-435 = system: MDA-MB-435
CAKI-1 = system: CAKI-1
NCI-H522 = system: NCI-H522
HCC 2998 = system: HCC 2998

In the case of `CC(=O)O[C@H]1CC[C@@]2(C)C(=CC[C@H]3[C@@H]4C/C(=C\c5ccc(N(C)C)cc5)[C@H](OC(C)=O)[C@@]4(C)CC[C@@H]32)C1`, the GI50 (HOP-62) is reported as 14.1 µM (inactive), the GI50 (DU-145) is reported as 23.8 µM (inactive) and the GI50 (NCI-H23) is reported as 13.1 µM (inactive). For the same molecule, the GI50 (OVCAR-4) was 14.7 µM (inactive), the GI50 (TK-10) was 15.6 µM (inactive) and the GI50 (SW-620) was 14.9 µM (inactive). The GI50 (OVCAR-5) was 19.6 µM (inactive), the GI50 (K562) was 6.59 µM (inactive) and the GI50 (ACHN) was 8.71 µM (inactive). For the same molecule, the GI50 (IGROV-1) was 13.8 µM (inactive), the GI50 (Hs-578T) was 3.72 µM (inactive) and the GI50 (NCI-H460) was 5.19 µM (inactive). For the same molecule, the GI50 (SF-539) was 10.7 µM (inactive), the GI50 (SN12C) was 14.7 µM (inactive) and the GI50 (RPMI-8226) was 4.89 µM (inactive). The GI50 (SNB-19) was 13 µM (inactive), the GI50 (SK-MEL-2) was 8.53 µM (inactive) and the GI50 (SF-295) was 4.12 µM (inactive). The GI50 (PC-3) was 4.41 µM (inactive), the GI50 (COLO 205) was 4.54 µM (inactive) and the GI50 (SF-268) was 12.7 µM (inactive). For the same molecule, the GI50 (MOLT-4) was 5.98 µM (inactive), the GI50 (LOX IMVI) was 8.91 µM (inactive) and the GI50 (EKVX) was 8.69 µM (inactive). For the same molecule, the GI50 (UACC-257) was 6.14 µM (inactive), the GI50 (Malme-3M) was 12.6 µM (inactive) and the GI50 (UACC-62) was 6.41 µM (inactive). For the same molecule, the GI50 (786-0) was 4.36 µM (inactive), the GI50 (A498) was 18.9 µM (inactive) and the GI50 (MDA-MB-231) was 12.5 µM (inactive). The GI50 (MCF7) was 7.62 µM (inactive), the GI50 (MDA-N) was 13.5 µM (inactive) and the GI50 (HCT-116) was 6.37 µM (inactive). For the same molecule, the GI50 (HT-29) was 8.43 µM (inactive), the GI50 (M14) was 14.2 µM (inactive) and the GI50 (A549) was 5.92 µM (inactive). For the same molecule, the GI50 (SK-OV-3) was 43.4 µM (inactive), the GI50 (RXF 393) was 9.91 µM (inactive) and the GI50 (U-251) was 6.71 µM (inactive). The GI50 (SNB-75) was 15.8 µM (inactive), the GI50 (OVCAR-8) was 11.3 µM (inactive) and the GI50 (NCI-H226) was 12.1 µM (inactive). For the same molecule, the GI50 (NCI/ADR-RES) was 13.1 µM (inactive), the GI50 (T47D) was 5.56 µM (inactive) and the GI50 (SR) was 4.1 µM (inactive). The GI50 (KM12) was 11.9 µM (inactive), the GI50 (OVCAR-3) was 8.93 µM (inactive) and the GI50 (HCT-15) was 6.27 µM. For the same molecule, the GI50 (HL-60) was 11.5 µM (inactive), the GI50 (BT-549) was 12 µM (inactive) and the GI50 (SK-MEL-5) was 12.5 µM (inactive). For the same molecule, the GI50 (UO-31) was 11.3 µM (inactive) and the GI50 (SK-MEL-28) was 12.7 µM (inactive).

In the case of `CC(=O)NNC(=O)C1CCCCN1` (stereo not drawn), the GI50 (HOP-62) is reported as > 100 µM (inactive), the GI50 (DU-145) is reported as > 100 µM (inactive) and the GI50 (NCI-H23) is reported as > 100 µM (inactive). For the same molecule, the GI50 (OVCAR-4) was > 100 µM (inactive), the GI50 (TK-10) was > 100 µM (inactive) and the GI50 (SW-620) was > 100 µM (inactive). The GI50 (OVCAR-5) was > 100 µM (inactive), the GI50 (K562) was > 100 µM (inactive) and the GI50 (ACHN) was > 100 µM (inactive). For the same molecule, the GI50 (CCRF-CEM) was > 100 µM (inactive), the GI50 (IGROV-1) was > 100 µM (inactive) and the GI50 (Hs-578T) was > 100 µM (inactive). For the same molecule, the GI50 (NCI-H460) was > 100 µM (inactive), the GI50 (SF-539) was > 100 µM (inactive) and the GI50 (SN12C) was > 100 µM (inactive). For the same molecule, the GI50 (RPMI-8226) was > 100 µM (inactive), the GI50 (SNB-19) was > 100 µM (inactive) and the GI50 (SK-MEL-2) was > 100 µM (inactive). The GI50 (SF-295) was > 100 µM (inactive), the GI50 (PC-3) was > 100 µM (inactive) and the GI50 (COLO 205) was > 100 µM (inactive). For the same molecule, the GI50 (HOP-92) was > 100 µM (inactive), the GI50 (SF-268) was > 100 µM (inactive) and the GI50 (MOLT-4) was > 100 µM (inactive). The GI50 (LOX IMVI) was > 100 µM (inactive), the GI50 (EKVX) was > 100 µM (inactive) and the GI50 (MDA-MB-435) was > 100 µM (inactive). The GI50 (UACC-257) was > 100 µM (inactive), the GI50 (Malme-3M) was > 100 µM (inactive) and the GI50 (786-0) was > 100 µM (inactive). The GI50 (A498) was > 100 µM (inactive), the GI50 (CAKI-1) was > 100 µM (inactive) and the GI50 (MDA-MB-231) was > 100 µM (inactive). The GI50 (MCF7) was > 100 µM (inactive), the GI50 (MDA-N) was > 100 µM (inactive) and the GI50 (HCT-116) was > 100 µM (inactive). The GI50 (HT-29) was > 100 µM (inactive), the GI50 (M14) was > 100 µM (inactive) and the GI50 (A549) was > 100 µM (inactive). The GI50 (SK-OV-3) was > 100 µM (inactive), the GI50 (RXF 393) was > 100 µM (inactive) and the GI50 (NCI-H522) was > 100 µM (inactive). The GI50 (U-251) was > 100 µM (inactive), the GI50 (OVCAR-8) was > 100 µM (inactive) and the GI50 (NCI-H226) was > 100 µM (inactive). For the same molecule, the GI50 (SR) was > 100 µM (inactive), the GI50 (KM12) was > 100 µM (inactive) and the GI50 (OVCAR-3) was > 100 µM (inactive). For the same molecule, the GI50 (HCT-15) was greater than 100 µM, the GI50 (HL-60) was > 100 µM (inactive) and the GI50 (BT-549) was > 100 µM (inactive). For the same molecule, the GI50 (SK-MEL-5) was > 100 µM (inactive) and the GI50 (SK-MEL-28) was > 100 µM (inactive).

In the case of `NCCCCC(N)C(=O)N1CCN(c2nc(N3CCCC3)c3nc(Cl)c(NCc4ccccc4)nc3n2)CC1` (stereo not drawn), the GI50 (HOP-62) is reported as 13.9 µM (inactive), the GI50 (DU-145) is reported as 16.9 µM (inactive) and the GI50 (NCI-H23) is reported as 19.4 µM (inactive). The GI50 (OVCAR-4) was 23.2 µM (inactive), the GI50 (HCC 2998) was 19.1 µM (inactive) and the GI50 (TK-10) was 19.2 µM (inactive). For the same molecule, the GI50 (SW-620) was 19.6 µM (inactive), the GI50 (OVCAR-5) was 19.1 µM (inactive) and the GI50 (K562) was 21.9 µM (inactive). For the same molecule, the GI50 (ACHN) was 19.1 µM (inactive), the GI50 (CCRF-CEM) was 15.5 µM (inactive) and the GI50 (IGROV-1) was 14.1 µM (inactive). For the same molecule, the GI50 (Hs-578T) was 19.4 µM (inactive), the GI50 (NCI-H460) was 17.5 µM (inactive) and the GI50 (SF-539) was 18.5 µM (inactive). The GI50 (SN12C) was 18.4 µM (inactive), the GI50 (RPMI-8226) was 17.8 µM (inactive) and the GI50 (SNB-19) was 17.1 µM (inactive). The GI50 (SK-MEL-2) was 19 µM (inactive), the GI50 (SF-295) was 18.5 µM (inactive) and the GI50 (PC-3) was 17.8 µM (inactive). For the same molecule, the GI50 (COLO 205) was 17.4 µM (inactive), the GI50 (HOP-92) was 10.3 µM (inactive) and the GI50 (SF-268) was 20 µM (inactive). The GI50 (MOLT-4) was 24.5 µM (inactive), the GI50 (LOX IMVI) was 17.5 µM (inactive) and the GI50 (EKVX) was 18.7 µM (inactive). For the same molecule, the GI50 (MDA-MB-435) was 23.2 µM (inactive), the GI50 (UACC-257) was 18.2 µM (inactive) and the GI50 (Malme-3M) was 23 µM (inactive). The GI50 (UACC-62) was 17.9 µM (inactive), the GI50 (786-0) was 17.8 µM (inactive) and the GI50 (CAKI-1) was 31 µM (inactive). For the same molecule, the GI50 (MDA-MB-231) was 18.1 µM (inactive), the GI50 (MCF7) was 19.6 µM (inactive) and the GI50 (MDA-N) was 17.7 µM (inactive). For the same molecule, the GI50 (HCT-116) was 16.6 µM (inactive), the GI50 (HT-29) was 18.9 µM (inactive) and the GI50 (M14) was 19.1 µM (inactive). For the same molecule, the GI50 (A549) was 18.5 µM (inactive), the GI50 (SK-OV-3) was 20.2 µM (inactive) and the GI50 (RXF 393) was 15.9 µM (inactive). For the same molecule, the GI50 (NCI-H522) was 19.3 µM (inactive), the GI50 (U-251) was 18.9 µM (inactive) and the GI50 (SNB-75) was 16.6 µM (inactive). The GI50 (OVCAR-8) was 14 µM (inactive), the GI50 (NCI-H226) was 20.8 µM (inactive) and the GI50 (NCI/ADR-RES) was 44.6 µM (inactive). For the same molecule, the GI50 (SR) was 18.1 µM (inactive), the GI50 (KM12) was 21.8 µM (inactive) and the GI50 (OVCAR-3) was 18.9 µM (inactive). The GI50 (HCT-15) was 17.7 µM, the GI50 (HL-60) was 17 µM (inactive) and the GI50 (BT-549) was 18.5 µM (inactive). For the same molecule, the GI50 (SK-MEL-5) was 18.1 µM (inactive), the GI50 (UO-31) was 17.5 µM (inactive) and the GI50 (SK-MEL-28) was 20.7 µM (inactive).
